We go through one compound from patent US8987199B2, “Pharmaceutical compositions for intranasal administration for the treatment of neurodegenerative disorders” (Nerve Access, Inc., priority 2011, dated 2015).

The series can be described thus: Solubility of clioquinol in an aqueous medium. Format: physicochemical. An excerpt: The invention also includes a process to dissolve, stabilize and incorporate clioquinol into an intranasal preparation. Clioquinol dissolves in DMSO. However, it precipitates upon the addition of an aqueous vehicle to that combination. In order to dissolve in an aqueous medium clioquinol requires a pH of approximately 11. A buffering system was developed that maintains the solubility and stability of clioquinol within a pH 7-8 which is compatible with the physiological pH oh the nasal tissue. The buffering system was adjusted to provide a capacity of pH 5-7, within which the preparation will be contained within 7-8 pH. The choice of the buffering system was based on the safety, chemical and physical effects of its ingredients on clioquinol and the other ingredients incorporated in the formula, as well as its effects on the end user of present pharmaceutical composition. The buffer system comprises boric acid and sodium carbonate in certain proportions to produce a protective pH 7-8 at which clioquinol stays physically and chemically stable.

As for `Oc1c(I)cc(Cl)c2cccnc12` [Clioquinol], the “pH required to dissolve in an aqueous medium” value was “approximately 11”.
